Data published in patent US20230210831A1, “CHRONIC KIDNEY DISEASE TREATMENT OR PREVENTION METHOD” (Japan Tobacco Inc., priority 2019, published 2023).

What was measured:
Type in all cases: cell-based
[1] = system: Salmonella typhimurium TA98; assay: Ames test (reverse mutation test), TA98
Method: (§1) The solvent used herein was dimethyl sulfoxide (DMSO, 100 µL/plate).
(§2) The mixtures were preincubated at 37° C. for 20 minutes while shaking. […] Two plates per treatment were used.

[2] = system: Salmonella typhimurium TA1537; assay: Ames test (reverse mutation test), TA1537
Method: as §1, §2

[3] = system: Salmonella typhimurium TA100; assay: Ames test (reverse mutation test), TA100
Method: as §1, §2

[4] = system: Salmonella typhimurium TA1535; assay: Ames test (reverse mutation test), TA1535
Method: as §1, §2

Escherichia coli WP2uvrA = assay: Ames test (reverse mutation test), WP2uvrA; settings: WP2uvrA
Method: as §1, §2

[5] = system: Salmonella typhimurium (TA98, TA1537, TA100, and TA1535) and Escherichia coli (WP2uvrA); assay: Ames test (reverse mutation test), overall conclusion over all tester strains; settings: all bacterial tester strains, with and/or without S9 mix
Method: as §1, §2
Details are explained as follows.

Nc1cc(-c2cc(F)cc(OC(F)(F)F)c2)n(-c2cncc(C(F)(F)F)c2)n1 [Metabolite 5]
Number of revertant colonies ([1]; TA98, +S9 mix, 6.9 µg/plate): 36 | Number of revertant colonies ([1]; TA98, +S9 mix, 21 µg/plate): 38 | Number of revertant colonies ([1]; TA98, +S9 mix, 62 µg/plate): 38 | Number of revertant colonies ([1]; TA98, +S9 mix, 185 µg/plate): 33 | Number of revertant colonies ([1]; TA98, +S9 mix, 556 µg/plate): 27 | Number of revertant colonies ([1]; TA98, +S9 mix, 1667 µg/plate): 25 | Number of revertant colonies ([1]; TA98, +S9 mix, 5000 µg/plate): 17 | Number of revertant colonies ([1]; TA98, -S9 mix, 6.9 µg/plate): 29 | Number of revertant colonies ([1]; TA98, -S9 mix, 21 µg/plate): 28 | Number of revertant colonies ([1]; TA98, -S9 mix, 62 µg/plate): 29 | Number of revertant colonies ([1]; TA98, -S9 mix, 185 µg/plate): 26 | Number of revertant colonies ([1]; TA98, -S9 mix, 556 µg/plate): 24 | Number of revertant colonies ([1]; TA98, -S9 mix, 1667 µg/plate): 18 | Number of revertant colonies ([1]; TA98, -S9 mix, 5000 µg/plate): 14 | Number of revertant colonies ([2]; TA1537, +S9 mix, 6.9 µg/plate): 13 | Number of revertant colonies ([2]; TA1537, +S9 mix, 21 µg/plate): 11 | Number of revertant colonies ([2]; TA1537, +S9 mix, 62 µg/plate): 12 | Number of revertant colonies ([2]; TA1537, +S9 mix, 185 µg/plate): 12 | Number of revertant colonies ([2]; TA1537, +S9 mix, 556 µg/plate): 8 | Number of revertant colonies ([2]; TA1537, +S9 mix, 1667 µg/plate): 3 | Number of revertant colonies ([2]; TA1537, +S9 mix, 5000 µg/plate): 1 | Number of revertant colonies ([2]; TA1537, -S9 mix, 6.9 µg/plate): 8 | Number of revertant colonies ([2]; TA1537, -S9 mix, 21 µg/plate): 7 | Number of revertant colonies ([2]; TA1537, -S9 mix, 62 µg/plate): 8 | Number of revertant colonies ([2]; TA1537, -S9 mix, 185 µg/plate): 7 | Number of revertant colonies ([2]; TA1537, -S9 mix, 556 µg/plate): 2 | Number of revertant colonies ([2]; TA1537, -S9 mix, 1667 µg/plate): 3 | Number of revertant colonies ([2]; TA1537, -S9 mix, 5000 µg/plate): 2 | Number of revertant colonies ([3]; TA100, +S9 mix, 6.9 µg/plate): 134 | Number of revertant colonies ([3]; TA100, +S9 mix, 21 µg/plate): 123 | Number of revertant colonies ([3]; TA100, +S9 mix, 62 µg/plate): 108 | Number of revertant colonies ([3]; TA100, +S9 mix, 185 µg/plate): 103 | Number of revertant colonies ([3]; TA100, +S9 mix, 556 µg/plate): 99 | Number of revertant colonies ([3]; TA100, +S9 mix, 1667 µg/plate): 67 | Number of revertant colonies ([3]; TA100, +S9 mix, 5000 µg/plate): 43 | Number of revertant colonies ([3]; TA100, -S9 mix, 6.9 µg/plate): 88 | Number of revertant colonies ([3]; TA100, -S9 mix, 21 µg/plate): 91 | Number of revertant colonies ([3]; TA100, -S9 mix, 62 µg/plate): 93 | Number of revertant colonies ([3]; TA100, -S9 mix, 185 µg/plate): 92 | Number of revertant colonies ([3]; TA100, -S9 mix, 556 µg/plate): 59 | Number of revertant colonies ([3]; TA100, -S9 mix, 1667 µg/plate): 29 | Number of revertant colonies ([3]; TA100, -S9 mix, 5000 µg/plate): 12 | Number of revertant colonies ([4]; TA1535, +S9 mix, 62 µg/plate): 10 | Number of revertant colonies ([4]; TA1535, -S9 mix, 5000 µg/plate): 4 | Number of revertant colonies (Escherichia coli WP2uvrA; +S9 mix, 6.9 µg/plate): 22 | Number of revertant colonies (Escherichia coli WP2uvrA; +S9 mix, 21 µg/plate): 22 | Number of revertant colonies (Escherichia coli WP2uvrA; +S9 mix, 62 µg/plate): 21 | Number of revertant colonies (Escherichia coli WP2uvrA; +S9 mix, 185 µg/plate): 21 | Number of revertant colonies (Escherichia coli WP2uvrA; +S9 mix, 556 µg/plate): 18 | Number of revertant colonies (Escherichia coli WP2uvrA; +S9 mix, 1667 µg/plate): 21 | Number of revertant colonies (Escherichia coli WP2uvrA; +S9 mix, 5000 µg/plate): 19 | Number of revertant colonies (Escherichia coli WP2uvrA; -S9 mix, 6.9 µg/plate): 23 | Number of revertant colonies (Escherichia coli WP2uvrA; -S9 mix, 21 µg/plate): 15 | Number of revertant colonies (Escherichia coli WP2uvrA; -S9 mix, 62 µg/plate): 23 | Number of revertant colonies (Escherichia coli WP2uvrA; -S9 mix, 185 µg/plate): 20 | Number of revertant colonies (Escherichia coli WP2uvrA; -S9 mix, 556 µg/plate): 22 | Number of revertant colonies (Escherichia coli WP2uvrA; -S9 mix, 1667 µg/plate): 19 | Number of revertant colonies (Escherichia coli WP2uvrA; -S9 mix, 5000 µg/plate): 14 | potential to induce reverse mutations [5]: did not show potential to induce reverse mutations
